Where no end group is shown, it is not given here. The star is where a group is joined. Acm = CC(=O)NC*

These results are taken from patent US6375928B1, “Neutrophil stimulating peptides” (Peptech Limited, priority 1990, dated 2002).

Assay type in all cases: cell-based
The subject of assay [1] is monocytes. The experiment in a line: Priming of monocytes for a respiratory burst (chemiluminescence). To be noted: with fMLP; 10^6 monocytes/tube/ml; 419 100 μg/10^6 monocytes, 50 U TNF or no pre-treatment, 30 min pre-incubation 37° C. The method, then: Peptide 419 (SEQ ID NO. 18) was assayed for its ability to prime monocytes for a respiratory burst. This assay was conducted essentially as described above for neutrophils except that the cells were cultured for 24 hours prior to assay.

The test system of assay [2] is neutrophils. Description: Chemotactic properties, neutrophil migration under agarose. The following applies: towards agent well; 1 × 10^−7 M fMLP, peptide, or 10^3 U/ml TNFα; 2×10^5 neutrophils. The protocol:
5 μl of neutrophils (2×10^5 cells) were added to the inner well, with chemotactic agent or control medium added to the outer wells. Migration at various time intervals was then measured.

For assay [3], the system named is human neutrophils. The experiment in a line: Chemiluminescence assay: priming of neutrophils for F-met-leu-phe response (respiratory burst). To be noted: for lucigenin dependent chemiluminescence, peak of response: 20 min pretreatment before f-met-leu-phe; for Chemiluminescence, neutrophil respiratory burst: 100 ug peptide, second, Table 4; for chemiluminescence (repeat experiment, Table 3): peptide + fMLP; for Chemiluminescence mean + sem: priming neutrophils for respiratory burst. The protocol: Purified human neutrophils were pretreated with peptide for 20 minutes before the addition of f-met-leu-phe. The lucigenin dependent chemiluminescence response, which reflects superoxide production, was then measured. The results obtained are set out in Table 2 and are expressed as mV of lucigenin dependent chemiluminescence and represent the maximal cell activity attained.
Results are expressed as mV of lucigenin dependent chemiluminescence and represent peak of response i.e. the maximal cell activity attained.

Assay [4] concerns neutrophils. The experiment in a line: Superoxide formation, cytochrome reduction assay. From the text:
The effect of peptides 308 and 309 (SEQ ID NOs. 10 & 11) on superoxide formation was examined by the cytochrome reduction assay, according to the procedure of Ferrante, 1989 (Infection and Immunity), 57: 2115-2122). The results, expressed as n moles of O2/5×10^5 cells as set out in Table 6.

The subject of assay [5] is neutrophils. Description: Neutrophil random migration out of wells in agarose. From the text: Migration of cells is an important property by which cells reach infection sites. Their accumulation at these sites is also dependent on the capacity of inflammatory mediators to inhibit their migration out of the sites.
Assay [6] relates to human neutrophils. Description: Chemiluminescence assay: priming of neutrophils for F-met-leu-phe response (respiratory burst). The following applies: peptide alone.
In assay [7] the test system is neutrophils. Description: Neutrophil degranulation: Vitamin B12 binding protein release (specific granules). To be noted: for Vitamin B12 Binding Protein, Exp. 1 / Vitamin B12 Binding Protein, Exp. 2 / Vitamin B12 Binding Protein, Exp. 3 / Vitamin B12 Binding Protein, Exp. 4: in the presence of CytoB.
Assay [8] deals with neutrophils. Description: Neutrophil degranulation: β-glucuronidase release (azurophilic granules). The following applies: for β-glucuronidase release, Exp. 1 / β-glucuronidase release, Exp. 2 / β-glucuronidase release, Exp. 3 / β-glucuronidase release, Exp. 4: in the presence of CytoB.
Setting [9] is: peptide 100 μg/10^6 cells (or HBSS) + fMLP.
The mark [10] stands for this setting: peptide 100 μg/10^6 cells, no fMLP.

Turning to `CSCC[C@H](NC=O)C(=O)N[C@@H](CC(C)C)C(=O)N[C@@H](Cc1ccccc1)C(=O)O` [fMLP, N-formyl-L-methionyl-L-leucyl-L-phenylalanine, reference compound], in assay [1], the “Peak mV Chemiluminescence, Mean ± S.D.” value is given as 109.0 ± 7.071 mV and the “Peak mV Chemiluminescence, experiment 2” value stood at 114.0 mV. Besides, in assay [2], the “Migration distance at 1.5 h, Agent” value is reported as 1.46 mm and the “Migration distance at 2.5 h, Agent” value is given as 2.45 mm.
In the case of “A E G Q L Q W L N R R A N A L L A N G (AEGQLQWLNRRANALLANG) [Peptide 307]”, the “lucigenin dependent chemiluminescence, peak of response” value (“lucigenin dependent chemiluminescence” for short) is recorded as 0.35 mV in assay [3] (peptide 1 μg/10^6 cells), 0.37 mV in assay [3] (peptide 10 μg/10^6 cells) and 0.42 mV in assay [3] (peptide 100 μg/10^6 cells).
Consider “A K P W Y E P I Y L (AKPWYEPIYL) [Peptide 275]”, for which the “lucigenin dependent chemiluminescence” value was found to be 0.99 mV in assay [3] (peptide 1 μg/10^6 cells), 0.69 mV in assay [3] (peptide 10 μg/10^6 cells), 0.43 mV in assay [3] (peptide 100 μg/10^6 cells) and 0.80 mV in assay [3] (peptide 500 μg/10^6 cells).
For the compound “A V S Y Q T K V N L L (AVSYQTKVNLL) [Peptide 396]”, the “Chemiluminescence, neutrophil respiratory burst” value in assay [3] amounted to 0.70 mV.
Take “HVLLTHTISRIAVSYQTKVNLL (HVLLTHTISRIAVSYQTKVNLL) [Peptide 309]”: the superoxide formation was 3.87 n moles of O2/5×10^5 cells in assay [4] (peptide + fMLP, 10 μg/5 × 10^5 cells); 5.14 n moles of O2/5×10^5 cells in assay [4] (peptide + fMLP, 100 μg/5 × 10^5 cells); 0.62 n moles of O2/5×10^5 cells in assay [4] (peptide alone, 10 μg/5 × 10^5 cells); 2.30 n moles of O2/5×10^5 cells in assay [4] (peptide alone, 100 μg/5 × 10^5 cells). The “effect on neutrophil random migration (in words)” value in assay [5] is reported as “potent inhibitors of neutrophil migration”. Moreover, the figures for the “Inhibition of Migration” value in assay [5] (10 μg/10^6 cells) and in assay [5] (100 μg/10^6 cells) were 0% and 100%, respectively. Moreover, the “Migration distance at 1.5 h, Agent” value in assay [2] was 0.53 mm. In addition, in assay [2], the “Migration distance at 2.5 h, Agent” value stood at 0.68 mm. The “chemiluminescence (repeat experiment, Table 3)” value is listed as 0.31 mV in assay [6] (10 μg/10^6 cells), 0.69 mV in assay [6] (100 μg/10^6 cells), 2.46 mV in assay [3] (10 μg/10^6 cells) and 12.84 mV in assay [3] (100 μg/10^6 cells). The “neutrophil stimulating activity / stimulation of neutrophil respiratory burst (in words)” value in assay [3] is reported as “neutrophil stimulating activity”. For the same compound, the “priming of neutrophils for the respiratory burst associated with f-met-leu-phe treatment (in words)” value (“priming of neutrophils” below) in assay [3] is on record as “found to prime human neutrophils for the respiratory burst”. Moreover, the “Chemiluminescence, neutrophil respiratory burst” value in assay [3] came out at 4.70 mV. Besides, the “lucigenin dependent chemiluminescence” value in assay [3] (peptide 1 μg/10^6 cells) is 0.38 mV; in assay [3] (peptide 10 μg/10^6 cells), 0.98 mV; in assay [3] (peptide 100 μg/10^6 cells) it was 13.44 mV.
For “K G Q G Cys (Acm) P S T H V L L T H T (KGQGC(Acm)PSTHVLLTHT) [Peptide 462, reference compound]”, the “priming of neutrophils” value in assay [3] is “does not possess the biological activity of those peptides”. Also, the results for the “Chemiluminescence mean + sem” value in assay [3] (1 μg peptide), in assay [3] (10 μg peptide) and in assay [3] (100 μg peptide) were 3.1 ± 0.5 mV, 4.8 ± 0.7 mV and 4.8 ± 0.5 mV, respectively.
Consider “LFKGQGCPSTHVLLTHTISRI (LFKGQGCPSTHVLLTHTISRI) [Peptide 304]”, for which the “release from specific granules (Vitamin B12 binding protein), in words” value in assay [7] (absence of fMLP) is reported as “no effect”; in assay [7] (presence of fMLP), “enhanced release from specific granules”. The “Vitamin B12 Binding Protein, Exp. 1” value in assay [7] (setting [9]) is given as 43.76; in assay [7] (setting [10]) it was 11.40. The entries for the “Vitamin B12 Binding Protein, Exp. 2” value in assay [7] (setting [9]) and in assay [7] (setting [10]) were 35.60 and 10.82, respectively. Also, the “Vitamin B12 Binding Protein, Exp. 3” value in assay [7] (setting [9]) worked out at 59.15; in assay [7] (setting [10]) it was 13.06. Also, the “Vitamin B12 Binding Protein, Exp. 4” value in assay [7] (setting [9]) is 37.12; in assay [7] (setting [10]), 8.42. Besides, in assay [5], the “effect on neutrophil random migration (in words)” value is recorded as “chemokinetic”. Besides, the entries for the “Inhibition of Migration” value in assay [5] (10 μg/10^6 cells) and in assay [5] (column headed 0 μg/10^6 cells) were −43% and −16%, respectively. Further, the “Migration distance at 1.5 h, Agent” value in assay [2] worked out at 0.47 mm. Further, in assay [2], the “Migration distance at 2.5 h, Agent” value is recorded as 0.72 mm. For the same compound, the “release from azurophilic granules (β-glucuronidase), in words” value is “no effect” in assay [8] (absence of fMLP) and “not azurophilic granules” in assay [8] (presence of fMLP). For the same compound, the “β-glucuronidase release, Exp. 1” value in assay [8] (setting [9]) came to 26.95%; in assay [8] (setting [10]), 3.63%. Also, the “β-glucuronidase release, Exp. 2” value in assay [8] (setting [9]) is 36.43%; in assay [8] (setting [10]), 3.14%. Moreover, the “β-glucuronidase release, Exp. 3” value in assay [8] (setting [9]) amounted to 35.34%; in assay [8] (setting [10]), 2.52%. Further, the “β-glucuronidase release, Exp. 4” value in assay [8] (setting [9]) is 36.65%; in assay [8] (setting [10]), 9.82%. Besides, the “chemiluminescence (repeat experiment, Table 3)” value in assay [6] (10 μg/10^6 cells) is 0.36 mV; in assay [6] (100 μg/10^6 cells) it was 0.64 mV; in assay [3] (10 μg/10^6 cells), 0.91 mV; in assay [3] (100 μg/10^6 cells) it was 6.97 mV. In assay [3], the “neutrophil stimulating activity / stimulation of neutrophil respiratory burst (in words)” value was “neutrophil stimulating activity”. Moreover, the “priming of neutrophils” value in assay [3] is reported as “found to prime human neutrophils for the respiratory burst”. Besides, the “lucigenin dependent chemiluminescence” value in assay [3] (peptide 1 μg/10^6 cells) stood at 0.18 mV; in assay [3] (peptide 10 μg/10^6 cells), 0.43 mV; in assay [3] (peptide 100 μg/10^6 cells), 2.56 mV; in assay [3] (peptide 500 μg/10^6 cells), 2.76 mV.
In the case of “L R D N Q L V V P S E G L Y L I (LRDNQLVVPSEGLYLI) [Peptide 302]”, the “lucigenin dependent chemiluminescence” value in assay [3] (peptide 1 μg/10^6 cells) came out at 0.16 mV; in assay [3] (peptide 10 μg/10^6 cells) it was 0.18 mV; in assay [3] (peptide 100 μg/10^6 cells) it was 0.29 mV.
In the case of “L S A E I N R P D Y L D F A E S G Q V (LSAEINRPDYLDFAESGQV) [Peptide 305]”, the “lucigenin dependent chemiluminescence” value worked out at 0.27 mV in assay [3] (peptide 1 μg/10^6 cells), 0.36 mV in assay [3] (peptide 10 μg/10^6 cells) and 0.24 mV in assay [3] (peptide 100 μg/10^6 cells).
For “L S A I K S P C Q R E T P E G A (LSAIKSPCQRETPEGA) [Peptide 303]”, in that order: 0.23 mV, 0.17 mV and 0.22 mV.
For the compound “L T H T I S R I A (LTHTISRIA) [Peptide 393]”, the “Chemiluminescence, neutrophil respiratory burst” value in assay [3] is reported as 0.31 mV.
In the case of “P S A H V L L T H T I (PSAHVLLTHTI) [Peptide 418]”, the “neutrophil stimulating activity / stimulation of neutrophil respiratory burst (in words)” value in assay [3] is given as “neutrophil stimulating activity”.
For “S R I A V S Y Q T K V N L L (SRIAVSYQTKVNLL) [Peptide 394]”, in assay [3], the “Chemiluminescence, neutrophil respiratory burst” value amounted to 0.33 mV.
For the compound “T I S R I A V S Y Q T (TISRIAVSYQT) [Peptide 323]”, the “priming of neutrophils” value in assay [3] was “not found to be capable of priming neutrophils”. In addition, the “lucigenin dependent chemiluminescence” value in assay [3] (peptide 1 μg/10^6 cells) was 0.23 mV; in assay [3] (peptide 10 μg/10^6 cells), 0.17 mV; in assay [3] (peptide 100 μg/10^6 cells), 0.47 mV.
For “V A H V V A N P Q A E G Q L (VAHVVANPQAEGQL) [Peptide 306]”, the “lucigenin dependent chemiluminescence” value in assay [3] (peptide 1 μg/10^6 cells) is 0.27 mV; in assay [3] (peptide 10 μg/10^6 cells) it was 0.35 mV; in assay [3] (peptide 100 μg/10^6 cells), 0.23 mV.
“V R S S S R T P S D K P V A H V V A (VRSSSRTPSDKPVAHVVA) [Peptide 301]”: the “lucigenin dependent chemiluminescence” value in assay [3] (peptide 1 μg/10^6 cells) is on record as 0.93 mV; in assay [3] (peptide 10 μg/10^6 cells) it was 0.74 mV; in assay [3] (peptide 100 μg/10^6 cells), 0.55 mV; in assay [3] (peptide 500 μg/10^6 cells) it was 1.10 mV.
